Assay results taken from patent US9127008B2, “Morphine sulfate methanolic solvate, processes for making same and related compositions and methods for treating pain” (Johnson Matthey Public Limited Company, priority 2013, dated 2015).
Like-named read-outs stand apart in the source and are kept apart here.

Tests used:
[1] = 2 months under air at room temperature
[2] = Storage of morphine sulfate in moisturizing chamber (moist room temperature air), ABUK/water/ethanol analysis; type: physicochemical; conditions: after several days in moisturizing chamber

Structure (SMILES) | methanol content after storage [1] | water content after storage [1] | ABUK level after storage ([1]; morphine base had 5 ppm ABUK at start) | ABUK level after storage ([2]; constant flow of moist room temperature air, 17 ppm ABUK before) | ethanol content after storage ([2]; 0.95% before (gas chromatography)) | water content after storage ([2]; 5.25% before (Karl Fischer))
CN1CC[C@]23c4c5ccc(O)c4O[C@H]2[C@@H](O)C=C[C@H]3[C@H]1C5 [morphine base, morphine] | 0.08 % by weight | 5.70 % by weight | 117 ppm |  |  | 
CN1CC[C@]23c4c5ccc(O)c4O[C@H]2[C@@H](O)C=C[C@H]3[C@H]1C5.O=S(=O)(O)O [morphine sulfate] |  |  |  | 123 ppm | 0.11% | 9.8%
